Values of other authors in patent publication US11331271B2, “Buccal, sublingual and intranasal delivery of fospropofol” (The Johns Hopkins University, priority 2016, dated 2022).
Where two headings read alike, the source gives them in different places.

Columns and labels:
[1] = IV lipid emulsion, animals; cited from earlier work
[2] = IV lipid emulsion, humans; cited from earlier work

CC(C)c1cccc(C(C)C)c1O [propofol, 2,6-diisopropylphenol]
extraction by the liver [1]: 80% | extraction by the liver [2]: 80%
